Patent US10342866B2, “Compositions and methods for immunotherapies comprising small molecule integrin receptor-ligand agonist adjuvants” (7 Hills Interests LLC, priority 2015, dated 2019)

Assays:
α4β1 (VLA-4) = molecular target: T1, α4β1 (VLA-4) (Homo sapiens, UniProt P05556+P13612); assay: Static cell adhesion assay, α4β1-mediated adhesion to VCAM-1; type: cell-based; details: Jurkat cells on sub-optimal VCAM-1 coating; PBS, 1 mM MgCl2, 50% FBS; read-out: Activity (EC50) in enhancing adhesion mediated by α4β1 (VLA-4)
T1 construct: the cells expressed the appropriate integrin receptor either endogenously (Jurkat/α4β1, K562/α5β1, Jurkat (a4-)/αLβ2, HSB/αLβ2); host or cells: Jurkat
T1 sequence (P13612 34-1032): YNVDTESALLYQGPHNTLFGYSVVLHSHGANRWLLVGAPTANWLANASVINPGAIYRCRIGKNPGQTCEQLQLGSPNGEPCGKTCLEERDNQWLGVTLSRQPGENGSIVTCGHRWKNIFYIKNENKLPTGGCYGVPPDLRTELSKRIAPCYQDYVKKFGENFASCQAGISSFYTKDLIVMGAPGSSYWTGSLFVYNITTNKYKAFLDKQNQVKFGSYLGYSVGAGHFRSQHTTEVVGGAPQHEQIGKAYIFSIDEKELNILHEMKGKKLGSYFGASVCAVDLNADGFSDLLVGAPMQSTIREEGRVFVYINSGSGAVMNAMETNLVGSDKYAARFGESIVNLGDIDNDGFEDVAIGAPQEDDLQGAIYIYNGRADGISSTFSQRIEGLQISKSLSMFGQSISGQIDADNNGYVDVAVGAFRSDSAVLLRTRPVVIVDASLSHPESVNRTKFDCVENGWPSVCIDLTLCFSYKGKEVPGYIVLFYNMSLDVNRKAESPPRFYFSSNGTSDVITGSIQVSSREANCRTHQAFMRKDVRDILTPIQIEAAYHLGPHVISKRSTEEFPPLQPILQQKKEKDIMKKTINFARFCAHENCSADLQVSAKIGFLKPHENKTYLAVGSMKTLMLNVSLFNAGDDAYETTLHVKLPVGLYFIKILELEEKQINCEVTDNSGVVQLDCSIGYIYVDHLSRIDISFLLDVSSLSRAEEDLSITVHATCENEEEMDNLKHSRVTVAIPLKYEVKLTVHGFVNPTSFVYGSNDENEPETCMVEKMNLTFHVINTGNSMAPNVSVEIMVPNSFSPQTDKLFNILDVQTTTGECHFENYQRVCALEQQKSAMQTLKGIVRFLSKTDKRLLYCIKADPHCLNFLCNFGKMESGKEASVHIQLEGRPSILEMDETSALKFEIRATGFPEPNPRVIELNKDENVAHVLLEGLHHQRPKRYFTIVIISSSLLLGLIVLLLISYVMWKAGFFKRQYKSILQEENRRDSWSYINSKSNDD
T1 sequence (P05556 21-798): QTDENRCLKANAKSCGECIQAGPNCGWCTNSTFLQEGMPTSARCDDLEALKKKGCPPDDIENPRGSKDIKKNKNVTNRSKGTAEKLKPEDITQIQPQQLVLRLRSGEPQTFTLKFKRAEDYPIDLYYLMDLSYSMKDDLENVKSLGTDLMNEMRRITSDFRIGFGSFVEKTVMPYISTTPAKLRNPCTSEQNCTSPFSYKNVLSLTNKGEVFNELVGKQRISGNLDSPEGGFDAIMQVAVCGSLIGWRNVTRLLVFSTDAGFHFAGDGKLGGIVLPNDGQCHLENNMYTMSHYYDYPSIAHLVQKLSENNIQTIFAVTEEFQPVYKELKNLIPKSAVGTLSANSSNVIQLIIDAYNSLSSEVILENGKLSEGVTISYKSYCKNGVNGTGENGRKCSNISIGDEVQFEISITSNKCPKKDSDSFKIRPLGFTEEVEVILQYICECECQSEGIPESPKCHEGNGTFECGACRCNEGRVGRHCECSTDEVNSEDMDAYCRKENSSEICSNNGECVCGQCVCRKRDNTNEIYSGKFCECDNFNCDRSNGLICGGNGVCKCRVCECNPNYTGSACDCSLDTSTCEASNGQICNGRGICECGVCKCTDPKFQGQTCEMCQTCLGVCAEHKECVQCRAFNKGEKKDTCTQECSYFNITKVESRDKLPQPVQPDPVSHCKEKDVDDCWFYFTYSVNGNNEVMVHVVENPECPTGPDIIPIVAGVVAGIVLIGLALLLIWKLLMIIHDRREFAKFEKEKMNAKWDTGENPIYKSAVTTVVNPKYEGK
Method: (§1) For all assays described, C4 was dissolved in DMSO to make a 1 mM stock solution, and dilutions were made in assay buffer or media to yield the desired final working concentrations in 1% DMSO (vehicle). Human VCAM-1, MAdCAM-1 Fc chimera, ICAM-1, and SDF-1α were purchased from R&D Systems (Minneapolis, Minn.). Human serum fibronectin was purchased from Sigma-Aldrich (St. Louis, Mo.). The cell lines NK-92, Jurkat, K562, and HSB were obtained from American Type Culture Collection (Manassas, Va.) and were maintained in recommended culture media. The mutant Jurkat cell line not expressing α4 integrin (Jurkat [a4-]) was a gift from Dr. David Rose, University of California San Diego, La Jolla, Calif.
(§2) Ligands (VCAM-1, MAdCAM-1, fibronectin, or ICAM-1) in 50 μL of 50 mM Tris-HCl (pH 7.4), 150 mM NaCl, (TBS) were added to wells of a 96-well plate and allowed to coat overnight at 4° C. In order to maximize the window to evaluate agonist activity, a sub-optimal coating concentration of ligand was used. This ligand concentration corresponded approximately to that which would yield ≤5% adhesion as determined by dose-response curves of ligand binding to the appropriate cell type. All assays were performed as previously described. Briefly, 2×10^6 cells were labeled for 30 minutes with calcein-AM (Molecular Probes), washed, resuspended in binding buffer, and added to ligand-coated plates (2×10^5 cells/well) that had been blocked with 2% BSA. The binding buffer was PBS with 1 mM MgCl2 and 50% FBS (VCAM-1 and ICAM-1 assays) or TBS with 1 mM MnCl2 and 50% FBS (MAdCAM-1 and fibronectin assays). After a 30-minute incubation at 37° C., the plates were washed 3 times with the respective binding buffer (except without the serum), the adherent cells were lysed, and fluorescence was measured on a Tecan Safire^2 plate reader. Standard curves were run for each assay to convert fluorescence units to cell number. For each assay, the cells expressed the appropriate integrin receptor either endogenously (Jurkat/α4β1, K562/α5β1, Jurkat (a4-)/αLβ2, HSB/αLβ2) or in recombinant form (K562/α4β7). Generation of the recombinant K562 cell line has been described.

αLβ2 (LFA-1) = molecular target: T2, αLβ2 (LFA-1) (Homo sapiens, UniProt P05107+P20701); assay: Static cell adhesion assay, αLβ2-mediated adhesion to ICAM-1; type: cell-based; details: Jurkat (a4-) or HSB cells on sub-optimal ICAM-1 coating; PBS, 1 mM MgCl2, 50% FBS; read-out: Activity (EC50) in enhancing adhesion mediated by αLβ2 (LFA-1)
T2 construct: the cells expressed the appropriate integrin receptor either endogenously (Jurkat/α4β1, K562/α5β1, Jurkat (a4-)/αLβ2, HSB/αLβ2); endogenous in cells; host or cells: Jurkat (α4-) or HSB
T2 sequence (P20701 26-1170): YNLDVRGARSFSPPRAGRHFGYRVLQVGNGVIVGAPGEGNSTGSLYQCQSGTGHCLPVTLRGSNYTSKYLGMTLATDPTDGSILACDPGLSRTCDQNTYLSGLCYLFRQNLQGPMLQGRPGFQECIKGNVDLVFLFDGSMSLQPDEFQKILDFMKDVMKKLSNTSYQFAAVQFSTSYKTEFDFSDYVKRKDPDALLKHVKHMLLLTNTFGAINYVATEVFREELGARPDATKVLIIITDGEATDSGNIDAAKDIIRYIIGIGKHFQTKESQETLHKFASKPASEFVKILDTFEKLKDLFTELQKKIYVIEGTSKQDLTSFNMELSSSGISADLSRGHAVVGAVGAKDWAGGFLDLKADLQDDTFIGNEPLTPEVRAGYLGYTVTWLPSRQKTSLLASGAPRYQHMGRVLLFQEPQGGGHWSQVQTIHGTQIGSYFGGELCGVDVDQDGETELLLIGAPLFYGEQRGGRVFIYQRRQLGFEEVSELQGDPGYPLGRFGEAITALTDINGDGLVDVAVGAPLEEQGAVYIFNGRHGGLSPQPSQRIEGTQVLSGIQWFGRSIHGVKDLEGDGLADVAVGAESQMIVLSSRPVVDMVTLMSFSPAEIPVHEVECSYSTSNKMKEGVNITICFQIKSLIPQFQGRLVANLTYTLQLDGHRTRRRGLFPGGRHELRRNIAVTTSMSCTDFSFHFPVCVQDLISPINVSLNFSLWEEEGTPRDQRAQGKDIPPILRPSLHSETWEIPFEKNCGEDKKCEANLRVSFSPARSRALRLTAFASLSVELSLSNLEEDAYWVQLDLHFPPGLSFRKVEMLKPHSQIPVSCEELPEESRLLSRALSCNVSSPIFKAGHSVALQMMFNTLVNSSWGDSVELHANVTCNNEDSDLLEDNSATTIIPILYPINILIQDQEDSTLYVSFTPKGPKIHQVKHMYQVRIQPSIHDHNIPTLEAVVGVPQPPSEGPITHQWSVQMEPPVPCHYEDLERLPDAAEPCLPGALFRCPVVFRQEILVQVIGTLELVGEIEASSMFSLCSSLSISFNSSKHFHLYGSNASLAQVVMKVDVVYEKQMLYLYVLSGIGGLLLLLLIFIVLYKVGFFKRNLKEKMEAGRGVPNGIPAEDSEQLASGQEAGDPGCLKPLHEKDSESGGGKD
T2 sequence (P05107 23-769): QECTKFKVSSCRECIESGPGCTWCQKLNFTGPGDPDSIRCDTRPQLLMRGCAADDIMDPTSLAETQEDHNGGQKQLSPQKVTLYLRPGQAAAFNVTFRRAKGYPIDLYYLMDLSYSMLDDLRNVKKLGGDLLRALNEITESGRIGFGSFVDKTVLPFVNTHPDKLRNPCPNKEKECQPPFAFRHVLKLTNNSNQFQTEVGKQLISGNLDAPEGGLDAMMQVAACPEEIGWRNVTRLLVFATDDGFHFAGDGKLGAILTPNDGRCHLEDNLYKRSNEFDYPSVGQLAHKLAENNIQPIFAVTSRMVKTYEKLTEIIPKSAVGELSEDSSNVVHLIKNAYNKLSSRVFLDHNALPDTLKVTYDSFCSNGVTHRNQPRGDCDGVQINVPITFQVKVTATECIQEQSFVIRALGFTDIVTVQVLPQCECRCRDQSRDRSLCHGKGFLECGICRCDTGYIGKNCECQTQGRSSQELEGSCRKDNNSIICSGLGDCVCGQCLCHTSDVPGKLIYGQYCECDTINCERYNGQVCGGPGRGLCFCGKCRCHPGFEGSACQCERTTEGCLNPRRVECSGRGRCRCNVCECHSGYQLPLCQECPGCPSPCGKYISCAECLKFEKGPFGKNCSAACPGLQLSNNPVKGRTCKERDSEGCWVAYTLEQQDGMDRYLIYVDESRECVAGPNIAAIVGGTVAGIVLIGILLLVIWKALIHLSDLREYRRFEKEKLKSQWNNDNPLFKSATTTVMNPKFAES
Method: as §1, §2

K562 tumor target cells = assay: NK cytotoxicity testing (NK cell cytolysis of tumor target cells); type: cell-based, human
Method: FIG. 1 depicts C4 enhancement of natural killer cell cytolysis of tumor target cells. Freshly isolated CD56+ natural killer cells were isolated from the peripheral blood of a healthy volunteer. Cells were either incubated with vehicle control (DMSO), or indicated concentrations of C4 for 4 h in the presence of tumor target cells (the erythroleukemic cell line K562). Data is presented as a percent increase in tumor cell killing.
FIG. 2 depicts the natural killer cell line NK-92, which was used at different effector to target ratios in the presence or absence of C4 (100 μM). Specific lysis of K562 cells is shown. All data are from triplicate determinations, and graphed as the mean+SD. […]
Human NK cells were purified from leukoreduction filters obtained from healthy volunteers using a CD56+ magnetic bead based enrichment column from Multenyi Biotech (as per manufacturer's instructions). Purified cells were routinely >90% CD56+ positive as measured by flow cytometry. […] After a 4 h incubation at 37° C., 5% CO2, culture supernatants were removed and liberated TDA (2,2′:6′,2″-terpyridine-6,6″-dicarboxylic acid) was detected by addition of DELFIA solution to form EuTDA, and fluorescence was measured on a Tecan Safire 2 multimodal plate reader. […] Results are expressed as the percent specific lysis, calculated as [(experimental signal−spontaneous release)/(total signal−spontaneous release).

Jurkat cells = assay: SDF-1α mediated migration assay across VCAM-1 coated membranes; type: cell-based; details: 4-hour incubation; *p<0.05 (FIG. 3A&B)
Method: (§3) FIGS. 3A&B depicts activity of C4 in enhancing SDF-1α mediated migration of Jurkat T cell, an exemplary activated T-cell, across membranes coated with either VCAM-1 or ICAM-1 (*p<0.05).
(§4) Migration assays were performed in […] pore size Transwells (24 well, Costar, Cambridge, Mass.). The upper chambers were pre-coated with […] VCAM-1 or 1 μg/mL ICAM-1 in […] TBS overnight at 4° C. and were then blocked with 2% BSA for 1 hour at room temperature. After washing with migration medium (RPMI-1640 supplemented with 1% FBS, 100 units/mL penicillin and 100 μg/mL streptomycin), upper chambers were loaded with 2×10^5 cells Jurkat cells (VCAM-1 assays) or Jurkat (a4-) cells (ICAM-1 assays) in 160 μL of migration medium. Lower chambers contained 600 μL of migration medium supplemented with 5 µg/mL (VCAM-1 assays) or 1 μg/mL (ICAM-1 assays) SDF-1α to induce chemotaxis. Jurkat cells were mixed with vehicle (1% DMSO) or C4 at the indicated concentrations immediately prior to being added to the upper chamber. After a 4-hour incubation at 37° C., 5% CO2, the upper chambers were removed, and cells in the lower chamber were collected and counted on a hemocytometer. Results are expressed as the total number of cells migrated.

Jurkat (a4-) cells = assay: SDF-1α mediated migration assay across ICAM-1 coated membranes; type: cell-based; details: 4-hour incubation, *p<0.05 (FIG. 3A&B)
Method: as §3, §4

B16-BL6 melanoma = assay: Checkpoint blockade B16-BL6 melanoma model; type: in vivo, C57BL/6 mice; details: C4 intratumorally 1 mg/kg twice weekly for 30 days from day 11
Method: C4 was tested in a B16-BL6 melanoma model to determine potential effects on the current checkpoint blockade therapy anti-CTLA-4. Briefly, thirty C57BL/6 were randomized into 3 groups (n=10). C4 was added to a regimen of GVAX®/anti-CTLA-4. Historically, these treatment regimens result in at best, a 20% tumor free survival. On day 0, B16-BL6 cells (2.5×10^4) were injected subcutaneously. GVAX®/anti-CTLA-4 (clone 9H10), or IgG controls, were administered on days 3, 6, and 9. On day 11, C4 treatment was initiated intratumorally twice weekly (1 mg/kg) for 30 days. Vehicle control was added to the IgG group.
The B16-BL6 therapeutic melanoma model is well described. Briefly, B16-BL6 cells (>90% viability) were be resuspended at 2.5×10^5 cells/ml in HBSS (4° C.). At day 0 (d0), C57BL/6 mice (4-6 wk old, female) were inoculated (subcutaneous, flank) with 2.5×10^4 cells (100 μL). At d3, appropriate groups received B16-GM-CSF vaccine (GVAX®). GVAX® preparation followed established procedures. Log-phase growth B16-GM-CSF cells were harvested as described above for B16-BL6 cells, but resuspended at 1×10^7 cells in HBSS (4° C.). Cells were irradiated (5000 rad) and injected into contralateral flanks (100 μL, […]). Also at d3, all animals received anti-CTLA-4 (mAb 9H10, BioXcell, 200 μg/animal, twice weekly). […] Animals were monitored daily for distress and survival was assessed twice daily. […]

With O=C(OCCOCCOCCOC(=O)N(Cc1cccs1)Cc1cccs1)N(Cc1cccs1)Cc1cccs1 [Compound C4, (ethane-1,2-diylbis(oxy))bis(ethane-2,1-diyl) bis(bis(thiophen-2-ylmethyl)carbamate)] the EC50 (α4β1 (VLA-4)) was 14 µM, the EC50 (αLβ2 (LFA-1)) was 11 µM and the “Killing (specific lysis) of K562 tumor target cells by NK-92 cell line” value (K562 tumor target cells; different effector to target ratios, C4 100 μM (FIG. 2)) was “enhanced”. For the same compound, the “Killing of K562 tumor target cells by freshly isolated CD56+ NK cells” value (K562 tumor target cells; human NK cells from healthy volunteer, 4 h, with or without C4 (FIG. 1)) was “enhanced”, the “SDF-1α mediated migration of Jurkat T cells across VCAM-1 coated membranes” value (Jurkat cells) was “enhancing” and the “SDF-1α mediated migration of Jurkat T cells across ICAM-1 coated membranes” value (Jurkat (a4-) cells) was “enhancing”. For the same compound, the “Long term tumor free survival on addition to GVAX/anti-CTLA-4 (in words)” value (B16-BL6 melanoma) was “significant increase” and the “Median survival benefit on addition to GVAX/anti-CTLA-4 (in words)” value (B16-BL6 melanoma) was “significant median survival benefit”.
CCCC[C@@H](COC(=O)N(Cc1cccs1)Cc1cccs1)NC(=O)N[C@@H](CC(=O)OC)c1ccc2c(c1)OCO2 [Compound C1, (6S,10S)-methyl 10-(1,3-benzodioxol-5-yl)-6-butyl-3,8-dioxo-1-(2-thienyl)-2-(2-thienylmethyl)-4-oxa-2,7,9-triazadodecan-12-oate] gave an EC50 (α4β1 (VLA-4)) of 32 µM and an EC50 (αLβ2 (LFA-1)) of 26 µM.
COc1ccc(CN(Cc2ccc(OC)cc2)C(=O)CCCCC(=O)N(Cc2ccc(OC)cc2)Cc2ccc(OC)cc2)cc1 [Compound C2, N^1,N^1,N^6,N^6-tetrakis(4-methoxybenzyl)adipamide] gave an EC50 (α4β1 (VLA-4)) of 11 µM and an EC50 (αLβ2 (LFA-1)) of 11 µM.
COc1cccc(CN(Cc2cccc(OC)c2)C(=O)CCCCC(=O)N(Cc2cccc(OC)c2)Cc2cccc(OC)c2)c1 [Compound C3, N^1,N^1,N^6,N^6-tetrakis(3-methoxybenzyl)adipamide] was tested, and the EC50 (α4β1 (VLA-4)) was 11 µM and the EC50 (αLβ2 (LFA-1)) was 7 µM.
